Assays:
[1] = pKa determination by potentiometry (methanol/water, Yasuda-Shedlovsky extrapolation); format: physicochemical; details: 25° C., potentiometry with methanol as cosolvent, extrapolated to 0% co-solvent (Yasuda-Shedlovsky)
Method: pKa determination data were collected on a Sirius GlpKa instrument with a D-PAS attachment. Measurements were made at 25° C. in aqueous solution by UV and in methanol water mixtures by potentiometry. The titration media was ionic-strength adjusted (ISA) with 0.15 M KCl (aq). The values found in the methanol water mixtures were corrected to 0% co-solvent via a Yasuda-Shedlovsky extrapolation. The data were refined using Refinement Pro software v1.0. Prediction of pKa values was made using ACD pKa prediction software v9.
The pKa of obeticholic acid was measured by potentiometry using methanol as a cosolvent (FIG. 27) and extrapolated to 0% co-solvent using a Yasuda-Shedlovsky extrapolation (FIG. 28). The pKa enables determination of the proportion of the neutral and the ionized form of the compound at a given pH.

[2] = rat, in vivo, po, 20 mg/kg
Method: The study described below was carried out to evaluate the plasma kinetics after a single oral administration and the efficiency of the intestinal absorption and the pharmacokinetics of solid non-crystalline and crystalline forms of obeticholic acid. The profiles of obeticholic acid plasma concentration vs time, the tmax, Cmax and AUC after administration of obeticholic acid Form 1 (non-crystalline) or Form F were compared (see FIGS. 37-38)
Obeticholic acid Form 1 (non-crystalline) and Form F were administered to rats and in each animal blood was collected at different period of times for at least 3 hours. Six animals were studied for each form of obeticholic acid.
The formulation was prepared as a suspension in water at pH 4. The study model is adult male Sprague Dawley rats about 225 to about 250 g (Harlan Laboratories). Six animals were used per dosage route. The dosage is PO 20 mg/kg/5 mL. The animals were fasted overnight before treatment with the formulation of obeticholic acid. Oral administration was performed by gastric gavage.
On day one animals were be fitted with a cannula implanted in the left jugular vein (SOP VIVO/SAF6), anaesthesia was obtained by Isoflurane. The experiment was started after one day of recovery from surgery. About 500 μL of blood (250 μL of plasma) was taken via cannula in a heparinised syringe (Na Heparin) and collected immediately in microtubes in an ice/water bath. Within 1 hour, samples were centrifuged at 10000×g for 5 minutes at 4° C. Plasma was immediately transferred in microtubes and stored at −20° C. Samples of blood were collected 30 minutes, 1 hour, 1.3 hour, 2 hours, and 3 hour post-dose. Plasma samples were analyzed using the HPLC-ES/MS/MS quantitative method. Pharmacokinetics study was preformed using non-compartmental methods.

[3] = Gravimetric Vapor Sorption (GVS); format: physicochemical
Method: (§1) Sorption isotherms were obtained using a SMS DVS Intrinsic moisture sorption analyzer, controlled by DVS Intrinsic Control software v 1.0.0.30. The sample temperature was maintained at 25° C. by the instrument controls. The humidity was controlled by mixing streams of dry and wet nitrogen, with a total flow rate of 200 ml·min^−1. The relative humidity was measured by a calibrated Rotronic probe (dynamic range of 1.0-100% RH), located near the sample. The weight change, (mass relaxation) of the sample as a function of % RH (relative humidity) was constantly monitored by the microbalance (accuracy±0.005 mg).
5 to 20 mg of sample was placed in a tared mesh stainless steel basket under ambient conditions. The sample was loaded and unloaded at 40% RH and 25° C. (typical room conditions). A moisture sorption isotherm was performed as outlined below (2 scans giving 1 complete cycle). The standard isotherm was performed at 25° C. at 10% RH intervals over a 0.5-90% RH range. Data analysis was undertaken in Microsoft Excel using DVS Analysis Suite v6.0.0.7. Method Parameters for SMS DVS Intrinsic Experiments are as follows:
The sample was recovered after completion of the isotherm and re-analyzed by XRPD.
as §1, with “SMS Analysis Suite software.” for “DVS Intrinsic Control software v 1.0.0.30.”, “RH” for “RH (relative humidity)”
Typically 5-20 mg of sample was placed in a tared mesh stainless steel basket under ambient conditions. The sample was loaded and unloaded at 40% RH and 25° C. (typical room conditions). A moisture sorption isotherm was performed as outlined below (2 scans giving 1 complete cycle). […]

[4] = Log P determination by potentiometric titration (octanol/ISA water); format: physicochemical; details: potentiometry
Method: Data were collected by potentiometric titration on a Sirius GlpKa instrument using three ratios of octanol: ionic-strength adjusted (ISA) water to generate Log P, Log Pion, and Log D values. The data were refined using Refinement Pro software v1.0. Prediction of Log P values was made using ACD v9 and Syracuse KOWWIN v1.67 software.
Log P was predicted using ACD software then measured by potentiometry. Three titrations were performed at three different octanol/ISA water ratios, giving the difference curve plotted in FIG. 30. The black curve is the pure aqueous pKa titration and the 3 colored curves correspond to the three octanol/ISA water ratios. The shifts in pKa enable determination of Log P.
Log D is the distribution coefficient, representing the combined lipophilicity of all species present at a specific pH. Log P is a compound constant, which corresponds to the partition coefficient of the pure neutral species, while Log Pion is that of the pure ionized species. Log P and Log Pion can be determined from the lipophilicity curve, as the intersection of the Y axis with respectively the tangent at the start of the pH scale (when the molecule is purely in its neutral form) and the tangent at the end of the pH scale (when the molecule is completely ionized).

[5] = 1 week
Method: Briefly, the solid was suspended in water at a low pH (HCl 0.1 mol/L) and left to equilibrate at 25° C. for one week under slightly mixing. The saturate solution was filtered and the concentration of the compound in solution measured by HPLC-ES-MS/MS.

Measured pKa [1]	Cmax, Form 1 compared with Form F [2]	Time of early plasma concentration peak [2] [min]	Time of second plasma concentration peak [2] [h]	GVS water uptake / weight change ([3]; 25° C., 0 to 90% RH) [%]	Hygroscopicity (GVS) ([3]; 25° C., 0 to 90% RH, in words)	XRPD analysis after GVS ([3]; sample recovered after isotherm)	Measured LogD7.4 ([4]; octanol/ISA water, pH 7.4)	Measured LogPion ([4]; octanol/ISA water, pure ionized species)	Measured LogP ([4]; three octanol/ISA water ratios)	Water solubility [5] [µM]	Plasma concentration of tauro conjugate, crystalline form compared with Form 1 [2]	Plasma obeticholic acid concentration after 3 hours relative to Cmax [2]	Time after which Cmax is achieved ([2]; pH 4) [h]	Compound
4.82	lower	30	2	3.8	moderately hygroscopic	still non-crystalline	2.98	1.58	5.54					obeticholic acid [Form 1]
										9.1	higher concentration	almost half of the Cmax	1.5	CC[C@H]1[C@@H](O)[C@@H]2[C@H](CC[C@]3(C)[C@@H]([C@H](C)CCC(=O)O)CC[C@@H]23)[C@@]2(C)CC[C@@H](O)C[C@@H]12 [Form F, obeticholic acid]

— patent US9982008B2, “Preparation and uses of obeticholic acid” (Intercept Pharmaceuticals, Inc., priority 2012, dated 2018)
